Test results: US10072304B2, “Nuclear localization of Src-family tyrosine kinases is required for growth factor-induced euchromatinization” (National University Corporation Chiba University, priority 2009, dated 2018)

Tested on: COS-1 cells
Assay: Quantitation of chromatin condensation levels (S.D. value of PI intensity per pixel) in COS-1 cells
Format: cell-based, monkey
Procedure: COS-1, HeLa cells (Japanese Collection of Research Bioresources, Osaka), MCF-7 (provided by H. Saya), A431 (provided by M. N. Fukuda), HEK293 (provided by […]), HCT116 (provided by T. Tomonaga), and SYF ([37]; provided by M. Okada and S. Nada) cells were cultured in Iscove's modified DME containing 5% fetal bovine serum (FBS). Cells were transiently transfected with 0.5 μg of plasmid vector using Trans IT Transfection reagent (Mirus) or with 1 μg of plasmid vector using linear polyethylenimine (25 kDa) (Polyscience, Inc.). For growth factor stimulation, COS-1 cells were starved under low serum conditions (0.05% FBS) for 24 h and restimulated with serum (5% FBS). For stimulation of endogenous SFKs, cells were treated with 3 mM Na3VO4 for 3 h, and SFK-mediated tyrosine phosphorylation was verified by treatment with 10 μM PP2 (SFK inhibitor; Calbiochem) or 100 nM wortmannin (PI3K inhibitor; Alomone Labs) for 21 h before Na3VO4 treatment. Na3VO4 was dissolved at 500 mM in 500 mM unbuffered HEPES before use. For preparation of stable transfectant clones, SYF cells transfected with c-Src-wt or Lyn-wt were selected in 333 μg/mL Zeocin (Invitrogen), and COS-1 cells were transfected with the BOSH2BGFP-N1 vector, which encodes GFP-tagged histone H2B ([39,40]; provided by H. Saya), were selected in 3 μg/mL blasticidin. Confocal and Nomarski differential-interference-contrast images were obtained using a Fluoview FV500 confocal laser scanning microscope with a 40×1.00 NA oil and a 100×1.35 NA oil immersion objective (Olympus, Tokyo) and an LSM 510 confocal laser scanning microscope with a 63×1.40 NA oil immersion objective (Zeiss), as described. One planar (xy) section slice (0.6-μm thickness) is shown in all experiments. In brief, cells were fixed with 4% paraformaldehyde for 20 min, and permeabilized in phosphate-buffered saline (PBS) containing 0.1% saponin and 3% bovine serum albumin at room temperature. Cells were subsequently reacted with an appropriate primary antibody for 1 h, washed with PBS containing 0.1% saponin, stained with FITC- or TRITC-conjugated secondary antibody for 1 h. […] To ensure no bleed-through from the fluorescein signal into the red channel, fluorescein and rhodamine were independently excited at 488 nm and 543 nm, respectively. PI was excited at 488 or 543 nm. Emission signals were detected between 505 and 525 nm for fluorescein, at more than 560 nm for rhodamine and more than 610 nm for PI [44]. Composite figures were prepared using Photoshop 5.0 and Illustrator 9.0 software (Adobe). For nuclear staining with anti-pTyr, anti-ATF-2 […]/71, and anti-histone H3K4me3 antibodies, cells were in situ extracted with 0.5% Triton X-100 at 4° C. for 3 min before fixation with 4% paraformaldehyde. For HP1α staining, cells were fixed in 100% methanol at -20° C. for 10 min followed by permeabilization for 30 min in PBS containing 0.1% Triton X-100 at room temperature. Cells were reacted with anti-HP1α antibody for 1 h at room temperature, washed with PBS four times, and stained with secondary antibody for 1 h. Fluorescence intensity plots of anti-histone H3K4me3, anti-ATF-2 […]/71 and anti-HP1α antibody and PI staining (see FIGS. 18B, 19B, and 20B, respectively) were generated using Fluoview version 4.3 software (Olympus, Tokyo). For detection of the kinase activity of nuclear SFKs, purified nuclei suspended in kinase buffer (50 mM HEPES-NaOH, pH7.4, 5 mM MgCl2, 5 mM MnCl2 and 0.1 mM Na3VO4) were preincubated with or without 10 μM PP2 at 30° C. for 30 min, and subsequently incubated with 5 or 10 μM ATP at 30° C. for 30 min, followed by cytocentrifugation at 200×g for 5 min and fixation with 4% paraformaldehyde. DNA was stained with 20 μg/mL PI and 200 μg/mL RNase A for 30 min. Mean fluorescence intensity of tyrosine-phosphorylated proteins in the nucleus was measured using the ImageJ software (National Institutes of Health). Confocal images of PI-stained nuclei were obtained as described above. […]

## [Na+].[Na+].[Na+].[O]=[V]([O-])([O-])[O-] [Na3VO4, sodium orthovanadate]
COS-1, 3 mM Na3VO4 for 3 h, FIGS. 23 and 26
  hypo- and hypercondensed chromatin states: induced drastic changes

## CC(C)(C)n1nc(-c2ccc(Cl)cc2)c2c(N)ncnc21 [PP2]
COS-1, 10 μM PP2 or 100 nM wortmannin for 24 h, FIGS. 22 and 26
  basal levels of chromatin condensation: significantly reduce
COS-1, 10 μM PP2 pretreatment 21 h, then 3 mM Na3VO4 3 h, FIGS. 23 and 26
  chromatin hypo- and hypercondensation in Na3VO4-treated cells: decrease
COS-1 starved 24 h (0.05% FBS), stimulated with 5% FBS in presence of 10 μM PP2, FIG. 16
  serum-stimulated chromatin hypo- and hypercondensation: significantly inhibited
Cells not specified, hyperosmolar conditions, data not shown
  hyperosmotic stress-induced chromatin structural changes: did not inhibit
